Test results taken from BindingDB's records for doi:10.1007/pl00005197 (Novartis Pharma, 1998).
Values joined by “and” are separate entries in the source; they are usually repeats but may differ in a detail not shown here. Identical values can stand only once. Numbered stars: 1 amine (or outer) side, 2 acyl side, 3 side chain; on linkers, the order of the positions; unused ones are H or OH. Bridge positions count the residues as written; N and C are the ends. Square brackets hold non-standard residues; d marks the D form. Peptide text beside a SMILES is read from it. * marks the point of attachment. d1Nal = N[C@H](Cc1cccc2ccccc12)C(=O)O; Asu = N[C@@H](CCCCCC(=O)O)C(=O)O; X1 = O=C(C(N[*:1])S[*:3])[*:2]; Ahp = NCCCCCCC(=O)O; Bn = c1ccc(C*)cc1; Mpa = O=C(O)CCS

Columns and labels:
[1] = target: Somatostatin receptor type 1 (Homo sapiens, UniProt P30872)
Sequence of Somatostatin receptor type 1 (P30872 whole entry): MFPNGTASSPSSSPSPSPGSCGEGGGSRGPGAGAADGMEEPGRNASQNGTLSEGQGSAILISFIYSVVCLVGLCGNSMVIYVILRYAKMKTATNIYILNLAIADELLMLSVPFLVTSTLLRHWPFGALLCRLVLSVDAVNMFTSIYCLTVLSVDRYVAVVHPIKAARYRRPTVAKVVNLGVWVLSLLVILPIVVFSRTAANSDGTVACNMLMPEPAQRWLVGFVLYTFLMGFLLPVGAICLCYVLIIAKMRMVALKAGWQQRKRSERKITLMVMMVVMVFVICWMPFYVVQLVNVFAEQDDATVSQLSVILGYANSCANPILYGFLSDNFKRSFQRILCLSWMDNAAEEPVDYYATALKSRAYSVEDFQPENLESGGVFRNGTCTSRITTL

[2] = target: Somatostatin receptor type 5 (Homo sapiens, UniProt P35346)
Sequence of Somatostatin receptor type 5 (P35346 whole entry): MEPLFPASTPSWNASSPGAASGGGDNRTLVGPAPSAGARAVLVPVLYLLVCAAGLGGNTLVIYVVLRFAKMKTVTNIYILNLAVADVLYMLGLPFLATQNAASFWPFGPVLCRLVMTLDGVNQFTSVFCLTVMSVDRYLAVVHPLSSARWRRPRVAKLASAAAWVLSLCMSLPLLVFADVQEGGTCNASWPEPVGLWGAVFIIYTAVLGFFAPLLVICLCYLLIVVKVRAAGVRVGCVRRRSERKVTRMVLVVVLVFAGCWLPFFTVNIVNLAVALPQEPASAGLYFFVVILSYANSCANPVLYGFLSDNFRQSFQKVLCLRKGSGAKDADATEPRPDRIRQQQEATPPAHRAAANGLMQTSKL

[3] = target: Somatostatin receptor type 3 (Homo sapiens, UniProt P32745)
Sequence of Somatostatin receptor type 3 (P32745 whole entry): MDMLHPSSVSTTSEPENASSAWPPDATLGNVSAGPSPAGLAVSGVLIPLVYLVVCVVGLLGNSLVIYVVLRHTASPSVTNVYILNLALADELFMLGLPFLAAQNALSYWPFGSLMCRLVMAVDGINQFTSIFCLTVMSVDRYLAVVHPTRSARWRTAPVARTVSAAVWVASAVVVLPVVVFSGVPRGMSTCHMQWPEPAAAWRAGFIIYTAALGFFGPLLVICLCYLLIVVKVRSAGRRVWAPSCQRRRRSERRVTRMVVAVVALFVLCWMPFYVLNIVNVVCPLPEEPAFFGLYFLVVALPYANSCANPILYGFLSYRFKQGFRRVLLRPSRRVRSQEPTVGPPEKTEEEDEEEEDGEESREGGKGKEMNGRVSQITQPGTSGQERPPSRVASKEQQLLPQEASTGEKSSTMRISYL

[4] = target: Somatostatin receptor type 4 (Homo sapiens, UniProt P31391)
Sequence of Somatostatin receptor type 4 (P31391 whole entry): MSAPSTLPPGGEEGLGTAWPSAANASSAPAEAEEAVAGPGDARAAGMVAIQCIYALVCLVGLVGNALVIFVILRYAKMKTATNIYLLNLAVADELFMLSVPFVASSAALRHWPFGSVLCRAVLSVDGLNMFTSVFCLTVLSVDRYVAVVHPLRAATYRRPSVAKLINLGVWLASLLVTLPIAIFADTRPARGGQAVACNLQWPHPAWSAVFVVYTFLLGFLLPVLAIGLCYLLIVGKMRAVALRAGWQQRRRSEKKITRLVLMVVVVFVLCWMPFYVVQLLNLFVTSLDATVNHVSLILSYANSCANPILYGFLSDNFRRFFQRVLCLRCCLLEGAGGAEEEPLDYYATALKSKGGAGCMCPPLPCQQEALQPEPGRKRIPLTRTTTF

[5] = target: Somatostatin receptor type 2 (Homo sapiens, UniProt P30874)
Sequence of Somatostatin receptor type 2 (P30874 whole entry): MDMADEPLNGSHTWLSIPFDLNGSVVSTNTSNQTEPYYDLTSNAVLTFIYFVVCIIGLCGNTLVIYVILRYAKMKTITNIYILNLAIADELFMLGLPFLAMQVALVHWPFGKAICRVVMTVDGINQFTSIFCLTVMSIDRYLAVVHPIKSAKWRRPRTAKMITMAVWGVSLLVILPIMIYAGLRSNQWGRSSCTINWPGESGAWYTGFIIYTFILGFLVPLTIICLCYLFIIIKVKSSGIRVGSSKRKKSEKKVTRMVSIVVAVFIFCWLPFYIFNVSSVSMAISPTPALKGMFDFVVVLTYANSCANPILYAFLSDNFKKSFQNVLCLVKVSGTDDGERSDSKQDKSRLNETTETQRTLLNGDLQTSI

Structure (SMILES) | Ki [1] | Ki [2] | Ki [3] | Ki [4] | Ki [5]
CC(C)[C@H](NC(=O)[C@H](CCCCN)NC(=O)[C@@H](Cc1c[nH]c2ccccc12)NC(=O)[C@H](Cc1ccc(O)cc1)NC(=O)[C@H](Cc1ccccc1)NC(=O)[C@H](N)Cc1ccccc1)C(=O)N[C@@H](Cc1ccccc1)C(=O)N[C@H](Cc1cccc2ccccc12)C(N)=O [BIM 23056] (H-[dF]FY[dW]KVF[d1Nal]-NH2) | 245 nM and 347 nM | 209 nM | 126 nM and 83.2 nM | 67.6 nM and 339 nM | 589 nM
C[C@@H](O)[C@@H]1NC(=O)[C@H](CCCCN)NC(=O)[C@@H](Cc2c[nH]c3ccccc23)NC(=O)[C@H](Cc2ccccc2)NC(=O)[C@@H]2CCCN2C(=O)[C@H](Cc2ccccc2)NC1=O (cyclo(PF[dW]KTF)) | 4790 nM and 4170 nM | 67.6 nM | 457 nM and 148 nM | 2450 nM and 8710 nM | 3.39 nM
C[C@@H](O)[C@@H]1NC(=O)[C@H](CCCCN)NC(=O)[C@H](Cc2c[nH]c3ccccc23)NC(=O)[C@H](Cc2ccccc2)NC(=O)[C@H](Cc2ccccc2)NC(=O)[C@H](CC(N)=O)NC(=O)[C@H](CCCCN)NC(=O)[C@@H](NC(=O)[C@@H]2CCCN2)CSSC[C@@H](C(=O)N[C@@H](CCCCN)C(=O)O)NC(=O)[C@H](CO)NC(=O)[C@H](CO)NC(=O)[C@H](Cc2ccccc2)NC1=O [Cortistatin(1-14)] (H-PCKNFFWKTFSSCK-OH; disulfide 2-13) |  | 3.98 nM | 0.87 nM and 0.74 nM | 1.74 nM and 1.78 nM | 2.88 nM
CC(C)[C@@H]1NC(=O)[C@H](CCCCN)NC(=O)[C@@H](Cc2c[nH]c3ccccc23)NC(=O)[C@H](Cc2ccc(O)cc2)NC(=O)[C@@H](NC(=O)[C@H](N)Cc2ccccc2)CSSC[C@@H](C(=O)N[C@@H](Cc2c[nH]c3ccccc23)C(N)=O)NC1=O [CAS_71306] (H-[dF]CY[dW]KVCW-NH2; disulfide 2-7) | 83.2 nM and 110 nM |  | 42.7 nM and 12.3 nM | 56.2 nM and 275 nM | 0.45 nM and 0.25 nM
C[C@@H](O)[C@H](NC(=O)[C@H](Cc1ccccc1)NC(=O)[C@@H](NC(=O)[C@H](CCCCN)NC(=O)[C@@H](Cc1c[nH]c2ccccc12)NC(=O)[C@H](Cc1ccccc1)NC(=O)[C@H](Cc1ccccc1)NC(=O)[C@H](N)Cc1ccccc1)[C@@H](C)O)C(N)=O [CAS_133073-82-2] (H-[dF]FF[dW]KTFT-NH2) | 4.27 nM and 2.4 nM | 35.5 nM |  | 2.34 nM and 6.31 nM | 3.16 nM
CC(C)[C@@H]1NC(=O)[C@H](CCCCN)NC(=O)[C@@H](Cc2c[nH]c3ccccc23)NC(=O)[C@H](Cc2ccc(O)cc2)NC(=O)[C@@H](NC(=O)[C@H](N)Cc2ccc3ccccc3c2)CSSC[C@@H](C(=O)N[C@H](C(N)=O)[C@@H](C)O)NC1=O [3-(2-Naphtyl)-D-Ala-L-Cys(1)-L-Tyr-D-Trp-L-Lys-L-Val-L-Cys(1)-L-Thr-NH2] | 219 nM |  | 13.8 nM and 9.55 nM |  | 0.54 nM and 0.55 nM
CC(C)[C@@H]1NC(=O)[C@H](CCCCN)NC(=O)[C@@H](Cc2c[nH]c3ccccc23)NC(=O)[C@H](Cc2ccc(O)cc2)NC(=O)CCSSC(C(=O)N[C@@H](Cc2ccccc2)C(N)=O)NC1=O (stereo not given in full) [CAS_117580-24-2] ([Mpa]Y[dW]KV[X1]F-NH2; disulfide 1-6) | 8710 nM and > 10000 nM | 2750 nM | 67.6 nM and 14.1 nM | 1050 nM and 2750 nM | 21.9 nM
C[C@@H](O)[C@@H]1NC(=O)[C@H](CCCCN)NC(=O)[C@@H](Cc2c[nH]c3ccccc23)NC(=O)[C@H](Cc2c[nH]c3ccccc23)NC(=O)[C@H](Cc2ccccc2)NC(=O)CCCCCCNC(=O)[C@H](Cc2ccccc2)NC1=O [L-362855] (cyclo([Ahp]FW[dW]KTF)) | 562 nM and 501 nM |  | 24 nM and 5.62 nM | 49 nM and 174 nM | 
CC(C)[C@@H]1NC(=O)[C@H](CCCCN)NC(=O)[C@@H](Cc2c[nH]c3ccccc23)NC(=O)[C@H](Cc2ccc(O)cc2)NC(=O)[C@H](C)N(C)C(=O)[C@H](Cc2ccccc2)NC1=O [seglitide] | > 10000 nM | 0.72 nM |  |  | 
C[C@@H](O)[C@@H]1NC(=O)[C@H](Cc2ccc(O)cc2)NC(=O)[C@H]([C@@H](C)O)NC(=O)[C@H](CCCCN)NC(=O)[C@H](Cc2c[nH]c3ccccc23)NC(=O)[C@H](Cc2ccccc2)NC(=O)[C@H](Cc2ccccc2)NC(=O)[C@H](CC(N)=O)NC(=O)[C@H](CCCCN)NC(=O)CCCCC[C@@H](C(=O)O)NC(=O)[C@H](CO)NC1=O [CGP-23996] (KNFFWKTYTS[Asu]-OH; lactam N-11) | 4.68 nM and 4.9 nM | 214 nM | 1.51 nM and 0.52 nM | 1.7 nM and 2.14 nM | 1.15 nM
CSCC[C@H](NC(=O)[C@H](CCCN=C(N)N)NC(=O)[C@@H](N)CC(=O)O)C(=O)N1CCC[C@H]1C(=O)N[C@H]1CSSC[C@@H](C(=O)N[C@@H](CCCCN)C(=O)O)NC(=O)[C@H](CO)NC(=O)[C@H](CO)NC(=O)[C@H](Cc2ccccc2)NC(=O)[C@H]([C@@H](C)O)NC(=O)[C@H](CCCCN)NC(=O)[C@H](Cc2c[nH]c3ccccc23)NC(=O)[C@H](Cc2ccccc2)NC(=O)[C@H](Cc2ccccc2)NC(=O)[C@H](CC(N)=O)NC(=O)[C@H](CCCN=C(N)N)NC1=O [Cortistatin] | 0.25 nM | 0.29 nM and 0.43 nM | 0.37 nM and 0.3 nM | 0.58 nM and 0.28 nM | 0.85 nM and 0.51 nM
C[C@@H](OCc1ccccc1)[C@@H]1NC(=O)[C@H](CCCCN)NC(=O)[C@@H](Cc2c[nH]c3ccccc23)NC(=O)[C@H](Cc2ccccc2)NC(=O)CCCCCCNC1=O [c[Aha-Phe-D-Trp-Lys-Thr(Bzl)]] (cyclo([Ahp]F[dW]KT(Bn))) | 95.5 nM and 158 nM | 955 nM | 589 nM and 83.2 nM | 331 nM and 851 nM | 1820 nM
